From patent publication US6365628B1 (Thia Medica AS, priority 1998, dated 2002)

Tests used:
PPARγ = target: T1, PPARγ (Homo sapiens, UniProt P37231); assay: Ligand of PPARγ; assay type: binding
T1 sequence (P37231 1-505): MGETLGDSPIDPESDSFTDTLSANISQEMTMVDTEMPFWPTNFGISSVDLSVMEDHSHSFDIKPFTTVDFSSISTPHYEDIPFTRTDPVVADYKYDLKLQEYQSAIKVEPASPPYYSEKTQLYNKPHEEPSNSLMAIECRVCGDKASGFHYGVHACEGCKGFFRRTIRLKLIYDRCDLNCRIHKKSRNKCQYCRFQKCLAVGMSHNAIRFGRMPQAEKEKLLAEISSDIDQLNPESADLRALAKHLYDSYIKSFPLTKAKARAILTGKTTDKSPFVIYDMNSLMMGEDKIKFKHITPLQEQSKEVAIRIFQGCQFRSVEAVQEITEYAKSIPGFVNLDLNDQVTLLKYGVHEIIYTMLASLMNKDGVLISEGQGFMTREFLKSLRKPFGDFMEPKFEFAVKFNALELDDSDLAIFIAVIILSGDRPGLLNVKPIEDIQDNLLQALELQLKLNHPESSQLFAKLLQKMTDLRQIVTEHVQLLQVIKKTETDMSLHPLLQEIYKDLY

male dogs = assay: Body weights of male dogs treated for 4 weeks (Example 10); assay type: in vivo, dog; details: 500 mg/kg/day orally in capsules
Method: 3 male dogs (4-6 months old) were housed singly during the days. Each animal was offered 400 g of SQC Diet A each morning after dosing and any residue diet was removed in the afternoon. The drug was administered orally in capsules once daily for 28 days.

[1] = tested on: obese Zucker (fa/fa) rats; assay: Liver mitochondrial fatty acid oxidation, CPT-I and CPT-II after TTA feeding (Example 16); assay type: in vivo, rat; details: chow with 0.15% TTA
Method: Freshly isolated livers from individual old Zucker rats, were homogenised in ice-cold sucrose buffer (0.25 M sucrose, 10 mM HEPES (pH 7.4) and 2 mM EDTA). Post-nuclear and mitochondrial fractions were prepared using preparative differential centrifugation according to DeDuve et al. (De Duve, C., et al., Biochem. J., 60, 604-617 1955.) Modifications, purity and yield were as described earlier (Garras, A., et al., Biochim. Biophys. Acta, 1255, 154-160 1995.). Acid soluble products were measured in post-nuclear and mitochondrial enriched fractions, using [1-^14C]-palmitoyl-CoA and [1-^14C]-palmitoyl-L-carnitine (Radiochemical Centre, Amersham, England) as substrates as described earlier (Willumsen, N., et al., J. Lipid Res., 34, 13-22 1993. Carnitine palmitoyltransferase-I and -II activities were measured in the post-nuclear and mitochondrial fractions essentially as described by Bremer (Bremer, J., Biochim. Biophys. Acta, 665, 628-631 1981.) and 3-hydroxy-3-methylglutharyl-CoA synthase was measured according to Clinkenbeard et al. (Clinkenbeard, K. D., et al., J. Biol. Chem, 250, 3108-3116 1975.) in the mitochondrial fractions.
RNA extraction (Chomczynski, P., et al., Anal. Biochem., 162, 156-159 1987.), Northern blot analysis and slot blotting of RNA onto nylon filters, and hybridisation to immobilised RNA were performed as earlier described (Vaagenes, H., et al., Biochem. Pharmacol., 56, 1571-1582 1998.). […]
Obese Zucker (fa/fa) rats were given a standard chow either with (n=6) or without (n=5) 0.15% TTA. […] Fatty acid oxidation rates were measured using [1-^14C]-palmitoyl CoA or [1-^14C]-palmitoyl-L-carnitine as substrates (A) CPT-I (B) and CPT-II (C) were measured in the mitochondrial factions. […] The relative mRNA levels were determined by densiometric scanning of the autoradiograms and the different mRNA levels were normalised to the respective 28S rRNA and the means for the controls were set to 1. […] Values are expressed as the mean±S.D.

obese Zucker fa/fa rats = assay: Fatty acid composition in liver and plasma of obese Zucker fa/fa rats (Example 19); assay type: in vivo, rat; details: 300 mg/day/kg gavage once daily for 10 days, delta-9-desaturated product of TTA
Method: Male obese Zucker fa/fa rats, weighing 100 g at the start of the experiment, were housed in pairs in metal wire cages in a room maintained at 12 h light-dark cycles and a constant temperature of 20±3° C. The animals were acclimatised for at least one week under these conditions before the start of the experiment.
TTA and palmitic acid (control), was suspended in 0.5% (w/v) carboxymethyl cellulose (CMC) and administered at a dose of 300 mg/day/kg body weight, by gastric intubation (gavage) once daily for 10 days. The rats were fasted for 2 hours before termination of the experiment. Blood and organs were collected. Total lipids were extracted from liver and plasma. The lipids were evaporated, saponified and esterified prior to separation using a Carlo Erba 2900 gas-chromatograph.

[2] = tested on: 5 weeks old Zucker (fa/fa) rats; assay: Intravenous glucose tolerance test (IVGTT) (Example 15); assay type: in vivo, rat
Method: Male Zucker (fa/fa) rats (5 weeks old) were anaesthetised after a 5-hours fast, by intraperitoneal injection of sodium pentobarbital (50 mg/kg). The rats were injected with glucose (0.55 g/kg) in the saphenous vein and blood samples were collected from the tail vein in heparinized tubes at time 0, 5, 10, 15, 20 and 30 minutes after the glucose load. Samples were kept on ice, centrifuged and plasma was stored at −20° C. until analysis.

[3] = tested on: mouse lymphoma cells, L5178Y; assay: Mutagenicity test in mouse lymphoma cells L5178Y; assay type: cell-based; details: 2.5-50 mg/ml
Text: Tests for mutagenic activity have been performed by Covance Laboratories Limited, England. […] Furthermore, TTA was not mutagenic when tested in mouse lymphoma cells […] L5178Y.

For Tetradecylthioacetic acid [TTA], which “Ligand of PPARγ” value (PPARγ) is on record?
The value was “less potent ligand”.

What about the “Mean body weight (kg)” value (male dogs; week 0) of the same substance?
The value was 9,22 ± 1,77 kg.

What about the “Mean body weight (kg)” value (male dogs; week 1) of the same substance?
Its value is 8,95 kg.

And the “Mean body weight (kg)” value (male dogs; week 2)?
Its value is 8,75 ± 1,58 kg.

And the “Mean body weight (kg)” value (male dogs; week 3)?
Its value is 8,58 kg.

What about the “Mean body weight (kg)” value (male dogs; week 4) of the same substance?
The value was 8,50 ± 1,74 kg.

What about the “Activity and mRNA levels of CPT-I” value ([1]; 21 days (FIG. 8B)) of the same substance?
The value was “increase”.

What about the “Activity and mRNA levels of CPT-II” value ([1]; 21 days (FIG. 8C)) of the same substance?
Its value is “increase”.

And the “Increase of liver fatty acid oxidation” value ([1]; 21 days, palmitoyl-CoA and palmitoyl-L-carnitine as substrates (FIG. 8A))?
The value was “more than 7 fold”.

What about the “Monounsaturated tetradecylthioacetic acid, fatty acid composition in liver (% of total)” value (obese Zucker fa/fa rats) of the same substance?
Its value is 1.1 ± 0.2 % of total.

What about the “Monounsaturated tetradecylthioacetic acid, fatty acid composition in plasma (% of total)” value (obese Zucker fa/fa rats) of the same substance?
Its value is 0.2 ± 0.1 % of total.

What about the IVGTT glucose curves ([2]; TTA treated vs control (FIG. 7B)) of the same substance?
The IVGTT glucose curves was “normal and comparable”.

And the “Plasma insulin response to glucose (IVGTT)” value ([2]; glucose 0.55 g/kg i.v. (FIG. 7A))?
The value was “significantly lower”.

And the “Mutagenicity in mouse lymphoma cells L5178Y” value [3]?
The value was “not mutagenic”.
